The text below walks through data of article PMC6021502, “Cannabigerol Action at Cannabinoid CB1 and CB2 Receptors and at CB1–CB2 Heteroreceptor Complexes” (Frontiers in Pharmacology, 2018).

pEC50, pIC50, pKi: −log10 of the molar value. Entries after “also recorded” stand apart in the source; their conditions may differ. Read-outs that look alike come from different tables or passages of the source. Bounds are passed on as bounds.

Assay [1] deals with T1, CB1R and CB2R (CB1–CB2 heteroreceptor complexes).
T1 construct: expressed in transfected cells; host or cells: HEK-293T, transient co-transfection (PEI)
The assay can be described thus: ERK1/2 phosphorylation in HEK-293T cells co-expressing both receptors. The format is cell-based, human. As to the method: (§1) HEK-293T cells were grown in DMEM medium (Gibco, Paisley, Scotland, United Kingdom) supplemented with 2 mM L-glutamine, 100 U/mL penicillin/streptomycin, MEM Non-Essential Amino Acids Solution (1/100) and 5% (v/v) heat inactivated Foetal Bovine Serum (FBS) (Invitrogen, Paisley, Scotland, United Kingdom). […] Cells were transiently transfected with the PEI (Polyethylenimine, Sigma, St. Louis, MO, United States) method as previously described ([Medrano et al., 2017]; [Navarro et al., 2018b]) and used for functional assays 48 h later (unless otherwise stated).
(§2) To determine ERK1/2 phosphorylation, 50,000 HEK-293T cells/well were plated in transparent Deltalab 96-well microplates and kept at the incubator for 24 h. 2 to 4 h before the experiment, the medium was substituted by serum-starved DMEM medium. Then, cells were pre-treated at 25°C for 10 min with vehicle or CBG in serum-starved DMEM medium and stimulated for an additional 7 min with the specific agonists. Cells were then washed twice with cold PBS before addition of lysis buffer (20 min treatment). 10 μL of each supernatant were placed in white ProxiPlate 384-well microplates and ERK 1/2 phosphorylation was determined using AlphaScreen®SureFire® kit (Perkin Elmer) following the instructions of the supplier and using an EnSpire® Multimode Plate Reader (PerkinElmer, Waltham, MA, United States).

Another assay concerns 5HT1A receptor. The arrangement: method as in Cascio et al., 2010. The following applies: stimulation by 1 μM 8-OH-DPAT; ref Cascio et al., 2010; cited from earlier work.
A further assay deals with mouse brain membranes. The arrangement: method as in Cascio et al., 2010. Particulars: 10 μM CBG, mouse brain membranes treated with AEA or CP-55940; ref Cascio et al., 2010; cited from earlier work.
Assay [2] deals with T1, CB1R and CB2R (CB1–CB2 heteroreceptor complexes). The assay can be described thus: Label-free dynamic mass redistribution (DMR) in HEK-293T cells co-expressing both receptors. It is filed as cell-based, human. As to the method:
as §1
Cell mass redistribution induced upon receptor activation was detected by illuminating the underside of a biosensor with polychromatic light and measuring the changes in the wavelength of the reflected monochromatic light. The magnitude of this wavelength shift (in picometers) is directly proportional to the amount of DMR. […] Hereafter, the sensor plate was scanned and a baseline optical signature was recorded for 10 min before adding 10 μL of CBG for 30 min followed by the addition of 10 μL of specific agonists; all test compounds were dissolved in assay buffer. The cell signaling signature was determined using an EnSpire® Multimode Plate Reader (PerkinElmer, Waltham, MA, United States) by a label-free technology. Then, DMR responses were monitored for at least 5,000 s. Results were analyzed using EnSpire Workstation Software v 4.10.

A further assay deals with TRPV2. The arrangement: method as in De Petrocellis et al., 2011. Particulars: ref De Petrocellis et al., 2011; read-out: EC50, agonist of TRPV2; cited from earlier work.
The subject of assay [3] is T2, CB2R.
T2 construct: expressed in transfected cells; host or cells: HEK-293T, transient transfection (PEI)
As to the kind of experiment: ERK1/2 phosphorylation in HEK-293T cells. The format is cell-based, human. The method, then:
as §1, §2

In assay [4] the test system is T3, CB1R.
T3 construct: expressed in transfected cells; host or cells: HEK-293T, transient transfection (PEI)
As to the kind of experiment: ERK1/2 phosphorylation in HEK-293T cells. It is filed as cell-based, human. As to the method: as §1, §2

The test system of assay [5] is T2, CB2R. The assay can be described thus: Label-free dynamic mass redistribution (DMR) in HEK-293T cells. The format is cell-based, human. As to the method:
as §1
(§3) Cell mass redistribution induced upon receptor activation was detected by illuminating the underside of a biosensor with polychromatic light and measuring the changes in the wavelength of the reflected monochromatic light. The magnitude of this wavelength shift (in picometers) is directly proportional to the amount of DMR. HEK-293T cells were seeded in 384-well sensor microplates to obtain 70–80% confluent monolayers constituted by approximately 10,000 cells per well. Previous to the assay, cells were washed twice with assay buffer (HBSS with 20 mM HEPES, pH 7.15) and incubated for 2 h with assay-buffer containing 0.1% DMSO (24°C, 30 μL/well). Hereafter, the sensor plate was scanned and a baseline optical signature was recorded for 10 min before adding 10 μL of CBG for 30 min followed by the addition of 10 μL of specific agonists; all test compounds were dissolved in assay buffer. The cell signaling signature was determined using an EnSpire® Multimode Plate Reader (PerkinElmer, Waltham, MA, United States) by a label-free technology. Then, DMR responses were monitored for at least 5,000 s. Results were analyzed using EnSpire Workstation Software v 4.10.

For assay [6], the system named is T3, CB1R. The assay is described as above. The format is cell-based, human. As to the method:
as §1, §3

Assay [7] deals with T4, human CB1 receptor (Homo sapiens, UniProt P21554).
T4 construct: expressed in transfected cells; membranes
T4 sequence (P21554 whole entry): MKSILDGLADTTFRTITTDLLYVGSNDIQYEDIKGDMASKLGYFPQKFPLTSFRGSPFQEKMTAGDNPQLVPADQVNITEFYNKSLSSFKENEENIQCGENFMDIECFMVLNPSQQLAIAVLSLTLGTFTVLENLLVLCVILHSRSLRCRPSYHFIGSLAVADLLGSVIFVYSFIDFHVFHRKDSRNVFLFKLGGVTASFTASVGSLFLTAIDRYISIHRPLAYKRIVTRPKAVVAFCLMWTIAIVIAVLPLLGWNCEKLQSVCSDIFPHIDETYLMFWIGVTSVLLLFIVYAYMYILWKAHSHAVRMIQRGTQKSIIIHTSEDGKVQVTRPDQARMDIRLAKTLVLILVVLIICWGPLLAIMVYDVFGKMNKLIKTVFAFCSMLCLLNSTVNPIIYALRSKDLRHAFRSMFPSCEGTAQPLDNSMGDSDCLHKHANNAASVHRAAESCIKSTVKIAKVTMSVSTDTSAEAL
As to the kind of experiment: biochemical. It is filed as binding.

Assay [8] addresses CB2R. Particulars: cited from earlier work.
The subject of assay [9] is T1, CB1R and CB2R (CB1–CB2 heteroreceptor complexes). The assay can be described thus: cAMP determination in HEK-293T cells co-expressing both receptors. The format is cell-based, human. The method, then: as §1
Signaling experiments have been performed as previously described ([Navarro et al., 2010], [2016], [2018b]; [Hinz et al., 2018]). Two hours before initiating the experiment, HEK-293T cell-culture medium was replaced by serum-starved DMEM medium. Then, cells were detached, resuspended in growing medium containing 50 μM zardaverine and placed in 384-well microplates (2,500 cells/well). Cells were pretreated (15 min) with CBG -or vehicle- and stimulated with agonists (15 min) before adding 0.5 μM forskolin or vehicle. Readings were performed after 15 min incubation at 25°C. […] Fluorescence at 665 nm was analyzed in a PHERAstar Flagship microplate reader equipped with an HTRF optical module (BMG Lab Technologies, Offenburg, Germany).

A further assay has as its system TRPM8 channels. The arrangement: method as in De Petrocellis et al., 2011. The following applies: ref De Petrocellis et al., 2011; read-out: IC50, antagonist of TRPM8 channels; cited from earlier work.
In assay [10] the target is T4, human CB1 receptor. The assay can be described thus: biochemical. The format is binding. Particulars: radioligand 0.3 nM [3H]-CP-55940, CHO membranes.
Where [11] appears, read: 100 nM CBG pretreatment, cells co-expressing CB1R and CB2R.
The mark [12] stands for this setting: CBG alone, dose-effect, cells expressing CB1R and CB2R.
The mark [13] stands for this setting: 100 nM or 1 μM CBG pretreatment, 100 nM AEA or JWH133, CB2R.
[14] abbreviates: CBG alone, 1 nM to 10 μM, CB2R-expressing cells.
[15] abbreviates: 100 nM or 1 μM CBG, 100 nM AEA or ACEA, CB1R.
The mark [16] stands for this setting: CBG alone, 1 nM to 10 μM, CB1R-expressing cells.

Take `CCCCCc1cc(O)c(C/C=C(\C)CCC=C(C)C)c(O)c1` [CBG, cannabigerol]: the “Effect on agonist actions on ERK1/2 phosphorylation” value in [1] (setting [11]) is listed as “negligible except for the negative modulation of the ACEA effect on ERK1/2 phosphorylation”. The “Effect on ERK1/2 phosphorylation” value in assay [1] (setting [12]) is reported as “negative cross-talk was still evident”. In addition, in the assay with 5HT1A receptor, the “Effect on [35S]GTPγS binding upon 5HT1A stimulation” value is recorded as “able to antagonize”. The “Effect on [35S]GTPγS binding” value with mouse brain membranes was “antagonized”. In assay [2] (setting [11]), the “Effect on agonist actions on DMR read-outs” value is “negative modulation of the ACEA effect on ERK1/2 phosphorylation and DMR, and of the AEA effect on DMR read-outs”. The DMR signal entry is “additive” in [2] (setting [12]); “small and similar to that exerted in CB1R-expressing cells” in the assay on CB2R [5] (setting [14]); “slight effect” in the assay on CB1R [6] (setting [16]). Also, the pEC50 in the assay on TRPV2 was 5.77. Besides, in the assay with CB2R [3] (setting [13]), the “Effect on AEA and JWH133 effects on ERK1/2 phosphorylation” value is “reduced the effects of AEA and JWH133”. Besides, the “Activation of the MAP kinase pathway” value in the assay with CB2R [3] (setting [14]) is reported as “notable”. The “Effect on agonist-induced MAPK phosphorylation” value in the assay with CB1R [4] (setting [15]) is “unable to modify”. The “Effect on MAPK phosphorylation” value with CB1R [4] (setting [16]) is “no significant action”. Also, the “Effect on AEA and JWH133 effects on label-free DMR” value in the assay on CB2R [5] (setting [13]) is “reduced the effects of AEA and JWH133”. The “Effect on agonist-induced DMR” value with CB1R [6] (setting [15]) was “reduced the effect of the agonists”. Moreover, the “Displacement of [3H]-WIN-55,212-2 from CB1R” value at human CB1 receptor [7] is recorded as “not able to displace the radioligand; also recorded: unable to compete”. Moreover, the pKi is under 4.52 on human CB1 receptor [7]; 6.30 to 6.52 at CB2R [8] (CHO cells expressing the human CB2R, preliminary results, ref Gauson et al., 2007, Pertwee, 2008); 5.59 at CB2R [8] (CHO cells expressing the human receptor, ref Cascio et al., 2010); 5.98 on human CB1 receptor [10]. Besides, the “Effect on AEA, ACEA and/or JWH133 actions in cAMP-related assays” value in assay [9] (setting [11]) is recorded as “significant effects, always reducing the effect of the agonists”. In assay [9] (setting [12]), the “Effect on cAMP level” value is “additive”. Moreover, the pIC50 in the assay with TRPM8 channels is 6.80.
